In patent publication US5019385A, “Novel lymphopine LK 2 and pharmaceutic compositions containing same” (Kabushiki Kaisha Hayashibara Seibutsu Kagaku Kenkyujo, priority 1984, dated 1991):
Where a name gives a salt, the structure may show the parent alone.

How the values were obtained:
[1] = tested on: HeLa; test: enhancement of antioncotic effect of chemotherapeutics by LK 2 (Experiment C-1, Table V); format: cell-based, human; conditions: ACNU 1.0×10^-6, 5-FU 1.5×10^-8, ADM 1.0×10^-10, MMC 2.5×10^-9 g/ml culture, VCR 1.5×10^-10 g/culture
Protocol: (§1) One human malignant tumor cell suspension (10^6 cells) was inoculated on 1 ml of conventional-type nutrient culture medium supplemented with foetal calf serum, and then cultured for one day. Thereafter, there was added to the culture 0.1 ml of saline containing 100 units of an LK 2 specimen, prepared by the method in Experiment A-3, and/or a chemotherapeutic, and cultured for an additional two days at 37° C.
(§2) As the control, an LK 2- and chemotherapeutic-free saline was used.
(§3) After completion of the culture, the number of viable cells was counted in accordance with the method in Experiment B-1, and the growth inhibition (%) was then determined.
(§4) The concentrations of the tested chemotherapeutics were as follows: nimustine hydrochloride (ACNU), 1.0×10^-6 g/ml culture; fluorouracil (5-FU), 1.5×10^-8 g/ml culture; doxorubicin (ADM), 1.0×10^-10 g/ml culture; mitomycin C (MMC), 2.5×10^-9 g/ml culture; and vincristine sulfate (VCR), 1.5×10^-10 g/culture.

[2] = tested on: HEp#2; test: as above; format: cell-based, human; conditions: ACNU 1.0×10^-6, 5-FU 1.5×10^-8, ADM 1.0×10^-10, MMC 2.5×10^-9 g/ml culture, VCR 1.5×10^-10 g/culture
Protocol: as §1, §2, §3, §4

[3] = tested on: HLE; test: as above; format: cell-based, human; conditions: ACNU 1.0×10^-6, 5-FU 1.5×10^-8, ADM 1.0×10^-10, MMC 2.5×10^-9 g/ml culture, VCR 1.5×10^-10 g/culture
Protocol: as §1, §2, §3, §4

[4] = tested on: PC-8; test: as above; format: cell-based, human; conditions: ACNU 1.0×10^-6, 5-FU 1.5×10^-8, ADM 1.0×10^-10, MMC 2.5×10^-9 g/ml culture, VCR 1.5×10^-10 g/culture
Protocol: as §1, §2, §3, §4

[5] = tested on: MKN 7; test: as above; format: cell-based, human; conditions: ACNU 1.0×10^-6, 5-FU 1.5×10^-8, ADM 1.0×10^-10, MMC 2.5×10^-9 g/ml culture, VCR 1.5×10^-10 g/culture
Protocol: as §1, §2, §3, §4

[6] = tested on: human breast cancer tissue; test: tumor mass in nude mice, LK 2 and/or mitomycin C (Experiment C-2, Table VI); format: in vivo, human tissue in BALB/c nude mice; conditions: MMC 1 mg/kg per day i.v., twenty days; control 10.8 ± 1.0; * significant vs control (5%)
Protocol: A group of BALB/c nude mice was transplanted subcutaneously in their dorsum areas with small fragments of human breast cancer tissue.
After the tumor masses grew to about 200 mm^3 in the bodies of the animals, saline containing an LK 2 preparation, obtained by the method described in Experiment A-3, and/or mitomycin C (MMC) was injected intravenously once every day for twenty days.
Thereafter, the animals were sacrificed, and the resultant tumor masses were weighed.
as §2

SMILES	growth inhibition (%) to tumor cell ([1]; +, with LK 2 100 units) [%]	growth inhibition (%) to tumor cell ([1]; -, without LK 2) [%]	growth inhibition (%) to tumor cell ([2]; +, with LK 2 100 units) [%]	growth inhibition (%) to tumor cell ([2]; -, without LK 2) [%]	growth inhibition (%) to tumor cell ([3]; +, with LK 2 100 units) [%]	growth inhibition (%) to tumor cell ([3]; -, without LK 2) [%]	growth inhibition (%) to tumor cell ([4]; +, with LK 2 100 units) [%]	growth inhibition (%) to tumor cell ([4]; -, without LK 2) [%]	growth inhibition (%) to tumor cell ([5]; +, with LK 2 100 units) [%]	growth inhibition (%) to tumor cell ([5]; -, without LK 2) [%]	Tumor mass [6] [g]
CC[C@]1(O)C[C@H]2CN(CCc3c([nH]c4ccccc34)[C@@](C(=O)OC)(c3cc4c(cc3OC)N(C=O)[C@H]3[C@@](O)(C(=O)OC)[C@H](OC(C)=O)[C@]5(CC)C=CCN6CC[C@]43[C@@H]65)C2)C1 (stereo in doubt) [VCR, vincristine sulfate]	63	10	66	5	69	10	72	8	70	6	–
O=c1[nH]cc(F)c(=O)[nH]1 [5-FU, fluorouracil]	69	12	80	8	81	8	85	10	77	6	–
Cc1ncc(CNC(=O)N(CCCl)N=O)c(N)n1 [ACNU, nimustine hydrochloride]	71	5	67	4	75	5	71	2	73	4	–
COc1cccc2c1C(=O)c1c(O)c3c(c(O)c1C2=O)C[C@@](O)(C(=O)CO)C[C@@H]3O[C@H]1C[C@H](N)[C@H](O)[C@H](C)O1 [ADM, doxorubicin]	62	7	70	13	73	7	71	6	69	5	–
CO[C@@]12[C@H](COC(N)=O)C3=C(C(=O)C(C)=C(N)C3=O)N1C[C@@H]1N[C@@H]12 [MMC, mitomycin C]	61	7	72	10	74	12	68	5	73	3	5.1 ± 0.4
